These results are taken from patent US20240261424A1, “ANTIBODY DRUG CONJUGATE” (NATIONAL CANCER CENTER, priority 2020, published 2024).

Test [1] has as its system human pancreatic adenocarcinoma cell line (BxPC-3). Kind of test: Cell-killing effect on BxPC-3. It counts as cell-based. The note with it: read-out: IC50 values for BxPC-3. The protocol:
(§1) The ADCs prepared above were evaluated in vitro for their cell-killing effects on human pancreatic adenocarcinoma cells by the following method.
(§2) RPMI-1640 supplemented with 10% fetal bovine serum and penicillin-streptomycin-[…] (×100) suspension was used as the culture medium. Human pancreatic adenocarcinoma BxPC-3, PSN-1, and HPAF-II were adjusted to 5000 cells/mL, 2000 cells/mL, and 5000 cells/mL, respectively, and seeded on 96-well plates at 100 μL/well and allowed to stand overnight in a CO2 incubator (37° C.).
(§3) The ADCs, Dxd single agent, and MMAE single agent were each adjusted with a culture solution so that the final concentration (in terms of MMAE and Dxd) was 0.1, 0.3, 1, 3, 10, 30, 100 nM, or the like, and were added at 100 μL/well to a 96-well plate inoculated with each human pancreatic adenocarcinoma, and then allowed to stand in a CO2 incubator (37° C.) for 6 days. Then, the culture medium containing the drug was removed with an aspirator, and the number of viable cells was measured by Cell Counting Kit-8 (manufactured by Dojindo Laboratories) according to the attached protocol. The reaction time of the reagent was three hours, and the absorbance was measured by SpectraMax Paradigm (manufactured by Molecular Devices). FIGS. 1A to 1E show the results of the cell-killing effects.

Test [2] deals with human pancreatic adenocarcinoma cell line (PSN-1). Put plainly: Cell-killing effect on PSN-1. The conditions noted are these: read-out: IC50 values for PSN-1. It counts as cell-based. The method, then: as §1, §2, §3

Structures are written as SMILES. Where two headings read alike, the source gives them in different places. Where a SMILES comes first, the peptide text is derived from it. [ ]: non-standard residue; d: D form. The star is where a group is joined. Dolaproine = CO[C@@H]([C@@H]1CCCN1)[C@@H](C)C(=O)O; Dil = CC[C@H](C)[C@H](NC)[C@@H](CC(=O)O)OC; X1 = C[C@@H](N*)[C@@H](O)c1ccccc1; NMeV = CN[C@H](C(=O)O)C(C)C

By IC50 is commonly meant the concentration needed to halve the response being measured. Take `CC[C@@]1(O)C(=O)OCc2c1cc1n(c2=O)Cc2c-1nc1cc(F)c(C)c3c1c2[C@@H](NC(=O)CO)CC3` [Dxd]: the half-maximal inhibitory concentration (IC50) came out at 2.58 ± 0.26 nM in test [1] (Homo sapiens, BXPC-3, 144 h) and 7.92 ± 0.84 nM in test [2] (Homo sapiens, PSN1, 144 h).

On to `CC[C@H](C)[C@@H]([C@@H](CC(=O)N1CCC[C@H]1[C@H](OC)[C@@H](C)C(=O)N[C@H](C)[C@@H](O)c1ccccc1)OC)N(C)C(=O)[C@@H](NC(=O)[C@@H](NC)C(C)C)C(C)C` [MMAE, monomethyl auristatin E] (H-[NMeV]V[Dil][Dolaproine]-X1), for which the 50% inhibitory concentration (IC50) was found to be 0.62 ± 0.04 nM in test [1] (FIG. 1A, concentration in terms of MMAE and Dxd, 6 days, Cell Counting Kit-8); 0.73 ± 0.04 nM in test [2] (FIG. 1B, concentration in terms of MMAE and Dxd, 6 days, Cell Counting Kit-8).
